US20230331673A1, “COMPOSITION OF COMPOUNDS THAT MODULATE CELL METABOLISM AND METHODS OF USE” (CRESCENTA BIOSCIENCES, priority 2020, published 2023)

Tests used:
[1] = system: differentiated 3T3-L1 mouse adipocyte cells; assay: Adipocyte glucose consumption in differentiated 3T3-L1 mouse adipocyte cells (loss of glucose from medium, colorimetric); assay type: cell-based; conditions: compound 10 μM, 22 to 24 hours, differentiated 3T3-L1 adipocytes, compound/DMSO, read-out: Glucose consumption (fold change) Mean
In short: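 3T3-L1 cells were differentiated with rosiglitazone, dexamethasone, IBMX and insulin, then used on day 11 or 12. Medium glucose was measured colorimetrically, and consumption was given as mean fold change versus DMSO ± SD.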

[2] = biological target: T1, His6 tagged human recombinant FABP4 (Homo sapiens, UniProt P15090); assay: FABP4 Tb TR-FRET assay: displacement of BODIPY FL C12 fatty acid from His6-FABP4; conditions: triplicates, inhibition of BODIPY FL C12 binding
T1 construct: purchased Cayman Chemicals 10009549
Text: Activity of compounds with FABP4 was profiled using a Terbium (Tb) based time resolved fluorescence energy transfer (TR-FRET) assay. The assay measures the compound mediated displacement of the fluorescent fatty acid BODIPY FL C12 (Thermo Fisher; catalog number D3822) from His6 tagged human recombinant FABP4 (His6-FABP4; Cayman Chemicals, catalog number 10009549) via recording the energy transfer from TB donor molecule on anti-His6-tag antibody to acceptor BODIPY moiety. Briefly, compounds were prepared at a concentration of 0.362 mM and 0.0362 mM, and BODIPY FL C12 was prepared at 4.2 μM, in DMSO. 1.2 μL of each compound or DMSO (vehicle control) and 1.2 μL of BODIPY FL C12 were added into the wells of a 384-well black polypropylene plate. His6-FABP4 and Tb anti-His6 antibody were prepared in the assay buffer (25 mM Tris/HCl, pH 7.4, 0.4 mg/ml γ-globulins, 0.010% NP-40, 1 mM DTT) at a concentration of 83 nM and 49.6 nM, respectively. The protein and antibody solutions were then mixed at a ratio of 34:7 (v/v) and incubated on ice for 30 minutes. The assay was initiated by adding 41 μL of the resulting protein/antibody solution into the wells containing the compounds and BODIPY FL C12. The plate was centrifuged and incubated at room temperature for 10 min. The TR-FRET signals were recorded using an EnVision Multilabel plate reader (PerkinElmer; TB excitation 320 nm, BODIPY FL C12 emission 520 nm; TB emission 615 nm). Relative fluorescence ratio (520 nm*10,000/615 nm) were used to calculate the compound mediated inhibition of BODIPY C12 FL fatty acid binding to FABP4. […] Glucose consumption and FABP4 inhibition is shown below in Table 3 below.

T1 sequence (P15090 whole entry): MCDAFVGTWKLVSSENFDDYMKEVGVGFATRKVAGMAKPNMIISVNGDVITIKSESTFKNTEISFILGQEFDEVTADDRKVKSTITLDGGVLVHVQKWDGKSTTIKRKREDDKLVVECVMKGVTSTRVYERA

Row | Compound | fold induction at 10 µM [1] | inhibition at 1 µM ([2]; 1 μM compound) [%] | further results
1 | CCCCCCC1CCCc2c(n(Cc3ccc4ocnc4c3)c3c(C(=O)O)cccc23)C1 (stereo not drawn) [5-[(1,3-benzoxazol-5-yl)methyl]-7-hexyl-5H,6H,7H,8H,9H,10H-cyclohepta[b]indole-4-carboxylic acid] | 0.87 | 88 | –
2 | CCCCCCC1CCCc2c(n(Cc3ccccc3C#N)c3c(C(=O)O)cccc23)C1 (stereo not drawn) [5-[(2-cyanophenyl)methyl]-7-hexyl-5H,6H,7H,8H,9H,10H-cyclohepta[b]indole-4-carboxylic acid] | 0.91 | 88.5 | –
3 | CCCCCCC1CCCc2c(n(Cc3cc(C#N)cs3)c3c(C(=O)O)cccc23)C1 (stereo not drawn) [5-[(4-cyanothiophen-2-yl)methyl]-7-hexyl-5H,6H,7H,8H,9H,10H-cyclohepta[b]indole-4-carboxylic acid] | – | 83.3 | inhibition at 10 µM ([2]; 10 μM compound): 89.4%
4 | CCCCCCC1CCCc2c(n(Cc3cccc(OC)c3)c3c(C(=O)O)cccc23)C1 (stereo not drawn) [7-hexyl-5-[(3-methoxyphenyl)methyl]-5H,6H,7H,8H,9H,10H-cyclohepta[b]indole-4-carboxylic acid] | 1.13 | 93.2 | –
5 | CCCCCCC1CCCc2c(n(Cc3cccc(C(F)(F)F)n3)c3c(C(=O)O)cccc23)C1 (stereo not drawn) [7-hexyl-5-{[6-(trifluoromethyl)pyridin-2-yl]methyl}-5H,6H,7H,8H,9H,10H-cyclohepta[b]indole-4-carboxylic acid] | – | 79.7 | –
6 | CCCCCCC1CCc2c(n(Cc3cccc(C(=O)O)c3)c3c(C(=O)O)cccc23)C1 (stereo not drawn) [9-[(3-carboxyphenyl)methyl]-2-hexyl-2,3,4,9-tetrahydro-1H-carbazole-8-carboxylic acid] | 1.01 | – | FABP4 inhibition (%) at 1 μM Mean ([2]; 1 μM compound): 42.40%; FABP4 inhibition (%) at 10 μM Mean ([2]; 10 μM compound): 80.24%
7 | N#Cc1cccc(Cn2c3c(c4cccc(C(=O)O)c42)CCC(CCc2ccccc2)C3)c1 (stereo not drawn) [9-[(3-cyanophenyl)methyl]-2-(2-phenylethyl)-2,3,4,9-tetrahydro-1H-carbazole-8-carboxylic acid] | – | 92.7 | –
8 | CCCCC1CCCCc2c1c1cccc(C(=O)O)c1n2Cc1cccc(C(N)=O)c1 (stereo not drawn) [10-butyl-5-[(3-carbamoylphenyl)methyl]-5H,6H,7H,8H,9H,10H-cyclohepta[b]indole-4-carboxylic acid] | 1.14 | – | –
9 | CCCCC1CCCCc2c1c1cccc(C(=O)O)c1n2Cc1cccc(C#N)c1 (stereo not drawn) [10-butyl-5-[(3-cyanophenyl)methyl]-5H,6H,7H,8H,9H,10H-cyclohepta[b]indole-4-carboxylic acid] | 1.24 | – | –
